Source: patent US20020082420A1, “Bicyclic heterocycles, pharmaceutical compositions containing them, their use, and processes for preparing them” (priority 2000, published 2002)

Columns and labels:
human EGF-R = molecular target: T1, human EGF-R (Homo sapiens, UniProt P00533); assay: Inhibition of EGF-dependent proliferation of F/L-HERc cells (Cell Titer 96 assay); format: cell-based; conditions: F/L-HERc cells (murine IL-3-dependent line expressing human EGF-R), stimulated with EGF 20 ng/ml, 48 hours at 37° C.
T1 construct: expressed in transfected cells; host or cells: F/L-HERc cells (murine IL-3-dependent FDC-P1 line transduced with an LXSN retroviral vector carrying human EGF-R cDNA; packaging line GP+E86)
T1 sequence (P00533 25-1210): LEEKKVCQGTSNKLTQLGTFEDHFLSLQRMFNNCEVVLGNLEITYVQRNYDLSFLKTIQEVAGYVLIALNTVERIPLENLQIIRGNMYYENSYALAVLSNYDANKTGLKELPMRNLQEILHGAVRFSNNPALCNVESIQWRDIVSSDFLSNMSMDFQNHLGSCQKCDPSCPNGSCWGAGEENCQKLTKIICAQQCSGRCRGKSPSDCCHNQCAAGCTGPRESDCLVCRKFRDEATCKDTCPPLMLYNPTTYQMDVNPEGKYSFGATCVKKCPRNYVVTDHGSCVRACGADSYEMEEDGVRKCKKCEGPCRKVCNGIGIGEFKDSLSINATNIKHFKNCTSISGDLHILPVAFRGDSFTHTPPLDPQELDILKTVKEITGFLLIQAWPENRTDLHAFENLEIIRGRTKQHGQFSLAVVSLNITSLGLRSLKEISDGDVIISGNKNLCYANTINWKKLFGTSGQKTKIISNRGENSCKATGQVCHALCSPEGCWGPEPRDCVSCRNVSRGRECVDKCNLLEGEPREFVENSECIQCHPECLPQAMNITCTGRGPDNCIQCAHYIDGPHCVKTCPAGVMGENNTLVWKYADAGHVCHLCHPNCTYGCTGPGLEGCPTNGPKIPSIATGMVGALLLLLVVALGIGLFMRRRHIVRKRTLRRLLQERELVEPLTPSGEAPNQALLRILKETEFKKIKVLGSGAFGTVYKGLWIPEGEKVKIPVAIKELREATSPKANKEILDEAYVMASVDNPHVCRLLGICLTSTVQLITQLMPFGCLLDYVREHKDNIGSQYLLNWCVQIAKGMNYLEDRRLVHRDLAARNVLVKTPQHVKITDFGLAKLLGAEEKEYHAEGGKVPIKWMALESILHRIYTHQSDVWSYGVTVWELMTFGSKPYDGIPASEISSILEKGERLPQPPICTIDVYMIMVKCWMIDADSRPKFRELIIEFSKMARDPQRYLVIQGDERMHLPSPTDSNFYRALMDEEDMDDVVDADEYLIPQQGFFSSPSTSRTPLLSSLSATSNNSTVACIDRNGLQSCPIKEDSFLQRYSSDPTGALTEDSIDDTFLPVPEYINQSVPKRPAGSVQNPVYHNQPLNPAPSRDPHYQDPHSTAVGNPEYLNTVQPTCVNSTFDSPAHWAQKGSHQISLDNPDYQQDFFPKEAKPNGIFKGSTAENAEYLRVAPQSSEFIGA
Excerpt: A cell line of murine origin dependent on interleukin-3-(IL-3) which was genetically modified to express functional human EGF-R was used here. The proliferation of these cells known as F/L-HERc can therefore be stimulated either by murine IL-3 or by EGF (cf T. von Ruiden et al., EMBO J. 7, 2749-2756 (1988) and J. H. Pierce et al., Science 239, 628-631 (1988)).
The starting material used for the F/L-HERc cells was the cell line FDC-P1, the production of which has been described by T. M. Dexter et al., J. Exp. Med. 152. 1036-1047 (1980). Alternatively, however, other growth-factor-dependent cells may also be used (cf., e.g., J.H. Pierce et al., Science 239, 628-631 (1988); H. Shibuya et al., Cell 70, 57-67 (1992); and W. S. Alexander et al., EMBO J. 10, 3683-3691 (1991)). For expressing the human EGF-R cDNA (cf A. Ullrich et al., Nature 309, 418-425 (1984)) recombinant retroviruses were used as described by T. von Ruiden et al., EMBO J. 7, 2749-2756 (1988), except that the retroviral vector LXSN (cf A. D. Miller et al., BioTechniques 7, 980-990 (1989)) was used for the expression of the EGF-R cDNA and the line GP+E86 (cf D. Markowitz et al., J. Virol. 62, 1120-1124 (1988)) was used as the packaging cell.
The test was performed as follows:
F/L-HERc cells were cultivated in RPMI/1640 medium (BioWhittaker), supplemented with 10% fetal calf serum (FCS, Boehringer Mannheim), 2 mM glutamine (BioWhittaker), standard antibiotics and 20 ng/ml of human EGF (Promega), at 37° C. and 5% CO2. In order to investigate the inhibitory activity of the compounds according to the invention, 1.5×10^4 cells per well were cultivated in triplicate in 96-well plates in the above medium (200 μl), the cell proliferation being stimulated with either EGF (20 ng/ml) or murine IL-3. The IL-3 used was obtained from culture supernatants of the cell line X63/0 mIL-3 (cf H. Karasuyama et al., Eur. J. Immunol. 18, 97-104 (1988)). The compounds according to the invention were dissolved in 100% dimethylsulfoxide (DMSO) and added to the cultures in various dilutions, the maximum DMSO concentration being 1%. The cultures were incubated for 48 hours at 37° C.
In order to determine the inhibitory activity of the compounds according to the invention the relative cell number was measured in O.D. units using the Cell Titer 96™ Aqueous Non-Radioactive Cell Proliferation Assay (Promega). The relative cell number was calculated as a percentage of the control (F/LHERc cells without inhibitor) and the concentration of active substance which inhibits the proliferation of the cells by 50% (IC50) was derived therefrom.

Row | Structure (SMILES) | IC50 (human EGF-R) [nM] | melting point
1 | COC(=O)CN(CC(=O)OC)C1CCC(N(C)c2ncc3ncnc(Nc4ccc(F)c(Cl)c4)c3n2)CC1 (stereo not drawn) [3(12), 4-[(3-chloro-4-fluorophenyl)amino]-6-[N-(trans-4-{N,N′-bis[(methoxycarbonyl)methyl]amino}cyclohex-1-yl)-N-methylamino]pyrimido[5,4-d]pyrimidine] | 103 | 162 to 164 °C
2 | COC(=O)CN1CCC(Nc2ncc3ncnc(Nc4cc(Br)c(N)c(Br)c4)c3n2)CC1 [2(27), 4-[(4-amino-3,5-dibromophenyl)amino]-6-({1-[(methoxycarbonyl)methyl]piperidin-4-yl}amino)pyrimido[5,4-d]pyrimidine] | 77 | 167 °C
3 | COC(=O)CN1CCC(Nc2ncc3ncnc(Nc4cccc(C)c4)c3n2)CC1 [2(24), 4-[(3-methylphenyl)amino]-6-({1-[(methoxycarbonyl)methyl]piperidin-4-yl}amino)pyrimido[5,4-d]pyrimidine] | 73 | 164 °C
4 | CCOP(C)(=O)CN1CCC(Nc2ncc3ncnc(Nc4cccc(Br)c4)c3n2)CC1 (centres unmarked) [4(2), 4-[(3-bromophenyl)amino]-6-[(1-{[(ethoxy)(methyl)phosphoryl]methyl}piperidin-4-yl)amino]pyrimido [5,4-d]pyrimidine] | 40 | –
5 | CCOP(=O)(CN1CCC(Nc2ncc3ncnc(Nc4cccc(Br)c4)c3n2)CC1)OCC [4(1), 4-[(3-bromophenyl)amino]-6-({1-[(diethoxyphosphoryl)methyl]piperidin-4-yl}amino)pyrimido[5,4-d]pyrimidine] | 40 | –
6 | CCOC(=O)CCN1CCC(N2CCN(c3ncc4ncnc(Nc5ccc(F)c(Cl)c5)c4n3)CC2)CC1 [2(12), 4-[(3-chloro-4-fluorophenyl)amino]-6-(4-{1-[2-(ethoxycarbonyl)ethyl]piperidin-4-yl}piperazin-1-yl)pyrimido[5,4-d]pyrimidine] | 810 | –
7 | O=C(O)C1CCN(CCNc2ncc3ncnc(Nc4ccc(F)c(Cl)c4)c3n2)CC1 [1(10), 4-[(3-chloro-4-fluorophenyl)amino]-6-[2-(4-carboxypiperidin-1-yl)ethylamino]pyrimido [5,4-d]pyrimidine] | 2510 | 190 °C (dec.)
8 | O=C(O)CCN1CCC(N2CCN(c3ncc4ncnc(Nc5ccc(F)c(Cl)c5)c4n3)CC2)CC1 [1(8), 4-[(3-chloro-4-fluorophenyl)amino]-6-{4-[1-(2-carboxyethyl)piperidin-4-yl]piperazin-1-yl}pyrimido[5,4-d]pyrimidine] | 1450 | 213 °C (dec.)
9 | CCOC(=O)CN1CCN(c2ncc3ncnc(Nc4ccc(F)c(Cl)c4)c3n2)CC1 [2(10), 4-[(3-chloro-4-fluorophenyl)amino]-6-[4-[(ethoxycarbonyl)methyl]piperazin-1-yl]pyrimido[5,4-d]pyrimidine] | 2040 | 179 to 182 °C
10 | CCOC(=O)CN1CCC(CCNc2ncc3ncnc(Nc4ccc(F)c(Cl)c4)c3n2)CC1 [2(13), 4-[(3-chloro-4-fluorophenyl)amino]-6-(2-{1-[(ethoxycarbonyl)methyl]piperidin-4-yl}ethylamino)pyrimido[5,4-d]pyrimidine] | 1030 | 128 to 130 °C
11 | COC(=O)CCN(C)C1CCN(c2ncc3ncnc(Nc4ccc(F)c(Cl)c4)c3n2)CC1 [2(15), 4-[(3-chloro-4-fluorophenyl)amino]-6-(4-{N-[2-(methoxycarbonyl)ethyl]-N-methylamino}piperidin-1-yl)pyrimido[5,4-d]pyrimidine] | 1760 | –
12 | CCOC(=O)C1CCN(CCNc2ncc3ncnc(Nc4ccc(F)c(Cl)c4)c3n2)CC1 [2(14), 4-[(3-chloro-4-fluorophenyl)amino]-6-{2-[4-(ethoxycarbonyl)piperidin-1-yl]ethylamino}pyrimido[5,4-d]pyrimidine] | 1150 | 137 to 139 °C
13 | O=C1CN(C2CCC(Nc3ncc4ncnc(Nc5ccc(F)c(Cl)c5)c4n3)CC2)CCO1 (stereo not drawn) [Example 7, 4-[(3-chloro-4-fluorophenyl)amino]-6-{[trans-4-(2-oxomorpholin-4-yl)cvclohex-1-yl]amino}pyrimido[5,4-d]pyrimidine] | 122 | 202 to 204 °C
14 | CN(CC(=O)O)[C@H]1CC[C@H](Nc2ncc3ncnc(Nc4ccc(F)c(Cl)c4)c3n2)CC1 [1(3), 4-[(3-chloro-4-fluorophenyl)amino]-6-({trans-4-[N-(carboxymethyl)-N-methylamino]cyclohex-1-yl}amino)pyrimido[5,4-d]pyrimidine] | 320 | 220 to 228 °C
15 | COC(=O)CN(C)CC1CCN(c2ncc3ncnc(Nc4ccc(F)c(Cl)c4)c3n2)CC1 [2(19), 4-[(3-chloro-4-fluorophenyl)amino]-6-[4-({N-[(methoxycarbonyl)methyl]-N-methylamino}methyl)piperidin-1-yl]pyrimido[5,4-d]pyrimidine] | 129 | –
16 | COC(=O)CN(C)[C@H]1CC[C@H](Nc2ncc3ncnc(Nc4ccc(F)c(Cl)c4)c3n2)CC1 [2(7), 4-[(3-chloro-4-fluorophenyl)amino]-6-[(trans-4-{N-[(methoxycarbonyl)methyl]-N-methylamino}cyclohex-1-yl)amino]pyrimido[5,4-d]pyrimidine] | 60 | 131 to 134 °C
17 | O=C(O)CN1CCC(Nc2ncc3ncnc(Nc4ccc(F)c(Cl)c4)c3n2)CC1 [Example 1, 4-[(3-chloro-4-fluorophenyl)amino]-6-{ [1-(carboxymethyl)piperidin-4-yl]amino}pyrimido[5.4-d]pyrimidine] | 840 | 202 to 205 °C

The next lines start with the values.

Row | IC50 (human EGF-R) [nM] | melting point | Structure (SMILES)
18 | 17 | – | COC(=O)CN1CCCC(Nc2ncc3ncnc(Nc4cccc(Br)c4)c3n2)C1 (centres unmarked) [3(17), 4-[(3-bromophenyl)amino]-6-({1-[(methoxycarbonyl)methyl]piperidin-3-yl}amino)pyrimido[5,4-d]pyrimidine]
19 | 25 | 129 °C | COC(=O)CN1CCC(Nc2ncc3ncnc(Nc4cccc(Cl)c4)c3n2)CC1 [2(23), 4-[(3-chlorophenyl)amino]-6-({1-[(methoxycarbonyl)methyl]piperidin-4-yl}amino)pyrimido[5,4-d]pyrimidine]
20 | 15 | 162 to 164 °C | COC(=O)CN1CCC(Nc2ncc3ncnc(Nc4ccc(F)c(Cl)c4)c3n2)CC1 [2(1), 4-[(3-chloro-4-fluorophenyl)amino]-6-({1-[(methoxycarbonyl)methyl]piperidin-4-yl}amino)pyrimido [5,4-d]pyrimidine]
21 | 26 | 167 °C | COC(=O)CN1CCC(Nc2ncc3ncnc(Nc4ccc5[nH]ccc5c4)c3n2)CC1 [2(28), 4-[(indol-5-yl)amino]-6-({1-[(methoxycarbonyl)methyl]piperidin-4-yl}amino)pyrimido [5,4-d]pyrimidine]
22 | 20 | – | COC(=O)C(C(=O)OC)N1CCC(Nc2ncc3ncnc(Nc4cccc(Br)c4)c3n2)CC1 [3(16)]
23 | 16 | – | COC(=O)CN[C@H]1CC[C@H](Nc2ncc3ncnc(Nc4ccc(F)c(Cl)c4)c3n2)CC1 [3(10), 4-[(3-chloro-4-fluorophenyl)amino]-6-[(trans-4-{[(methoxycarbonyl)methyl]amino}cyclohex-1-yl)amino]pyrimido[5,4-d]pyrimidine]
24 | 40 | – | COC(=O)C(C(=O)OC)N1CCC(Nc2ncc3ncnc(Nc4ccc(F)c(Cl)c4)c3n2)CC1 [3(18)]
25 | 20 | – | COC(=O)CN(CC(=O)OC)[C@H]1CC[C@H](Nc2ncc3ncnc(Nc4ccc(F)c(Cl)c4)c3n2)CC1 [3(5), 4-[(3-chloro-4-fluorophenyl)amino]-6-[(trans-4-{N,N-bis-[(methoxycarbonyl)methyl]amino}cyclohex-1-yl)amino]pyrimido [5,4-d]pyrimidine]
26 | 58 | – | CCOC(=O)CN(CC(=O)OCC)[C@H]1CC[C@H](Nc2ncc3ncnc(Nc4ccc(F)c(Cl)c4)c3n2)CC1 [3(4), 4-[(3-chloro-4-fluorophenyl)amino]-6-[(trans-4-{N,N-bis-[(ethoxycarbonyl)methyl]amino}cyclohex-1-yl)amino]pyrimido[5,4-d]pyrimidine]
